Among the data in patent US8304539B2, “Fused heteroaryl modulators of glucocorticoid receptor, AP-1, and/or NF-κB activity and use thereof” (Bristol-Myers Squibb Company, priority 2008, dated 2012) are Ki values, retold here.

In general, Ki refers to a dissociation constant, usually derived from enzyme kinetics or from competition with a known ligand.

For this test, the target named is T1, human full-length glucocorticoid receptor (Homo sapiens, UniProt P04150).
T1 construct: recombinantly expressed human full-length glucocorticoid receptor; purchased PanVera Co., Madison, Wis; P2816
T1 sequence (P04150 1-777): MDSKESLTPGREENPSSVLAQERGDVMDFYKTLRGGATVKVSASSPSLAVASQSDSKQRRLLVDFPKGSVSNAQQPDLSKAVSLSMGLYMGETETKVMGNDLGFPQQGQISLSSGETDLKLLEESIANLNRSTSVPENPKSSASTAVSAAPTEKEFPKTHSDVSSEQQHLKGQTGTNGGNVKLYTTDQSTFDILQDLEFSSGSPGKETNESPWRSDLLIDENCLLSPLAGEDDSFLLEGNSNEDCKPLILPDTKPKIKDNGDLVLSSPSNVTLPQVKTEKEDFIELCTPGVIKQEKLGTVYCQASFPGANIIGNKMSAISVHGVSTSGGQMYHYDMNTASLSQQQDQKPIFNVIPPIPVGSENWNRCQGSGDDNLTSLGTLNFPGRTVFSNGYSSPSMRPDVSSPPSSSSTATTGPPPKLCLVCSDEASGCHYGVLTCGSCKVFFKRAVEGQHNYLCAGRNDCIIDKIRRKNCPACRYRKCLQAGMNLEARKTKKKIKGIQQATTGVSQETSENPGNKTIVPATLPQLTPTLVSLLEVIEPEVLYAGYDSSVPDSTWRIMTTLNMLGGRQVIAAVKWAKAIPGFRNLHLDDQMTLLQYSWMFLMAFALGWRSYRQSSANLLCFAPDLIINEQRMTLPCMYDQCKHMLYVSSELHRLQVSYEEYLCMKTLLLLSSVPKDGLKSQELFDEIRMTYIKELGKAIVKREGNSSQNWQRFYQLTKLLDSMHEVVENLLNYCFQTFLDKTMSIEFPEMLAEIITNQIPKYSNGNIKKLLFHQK
Briefly: GR binding Assay II (fluorescence polarization competitor assay). As to conditions: given where AP-1 EC50 is greater than 1 uM and/or maximal inhibition is less than 20%; read-out: GR (Ki, nM) (measured in GR binding Assay II). On the procedure:
Glucocorticoid Receptor Binding Assay (II)
In order to measure the binding of compounds on the glucocorticoid receptor a commercially available kit was used (Glucocorticoid receptor competitor assay kit, PanVera Co., Madison, Wis., P2816). Briefly, a cell lysate containing recombinantly expressed human full-length glucocorticoid receptor was mixed with a fluorescently labeled glucocorticoid (1 nM Fluormone GS1) in the presence or absence of test compound. After one hour at room temperature, the fluorescence polarization (FP) of the samples were measured. The FP of a mixture of receptor, fluorescent probe (i.e. Fluormone GS1) and 1 mM dexamethasone represented background fluorescence or 100% inhibition, whereas, the FP of the mixture without dexamethasone was taken to be 100% binding. The percentage inhibition of test molecules were then compared to the sample with 1 mM dexamethasone and expressed as % relative binding activity with dexamethasone being 100% and no inhibition is 0%. Test molecules were analyzed in the concentration range from 2.4 nM to 40 microMolar.
A general note: In fluorescence polarisation assays a small probe gives low polarisation when free and higher when bound to something large.

The structures appear in SMILES notation.

Take `CNC(=O)c1nnc(NC(=O)C(C)(C)[C@H]2c3ccc(C)nc3Oc3nc(-c4ccc(C(=O)N(C)C)cc4)ccc32)s1` [Example 45]: the inhibitory constant (Ki) came to 134 nM.
The figure for `Cc1ccc2c(n1)Oc1nc(-c3ccc(C(=O)N4CCC(F)(F)C4)c(F)c3)ccc1[C@H]2C(C)(C)C(=O)Nc1nncs1` [Example 39] is 38.2 nM; for `CCN(C)C(=O)c1ccc(-c2ccc3c(n2)Oc2c(ccc[n+]2[O-])C3C(C)(C)C(=O)Nc2nncs2)cc1` (centres unmarked) [Example 84, 4-(5-(1,1-dimethyl-2-oxo-2-(1,3,4-thiadiazol-2-ylamino)ethyl)-9-oxido-5H-pyrido[3′,2′:5,6]pyrano[2,3-b]pyridin-2-yl)-N-ethyl-N-methylbenzamide] it is 1150 nM.
For `CSc1ccc(-c2ccc3c(n2)Oc2nc(C)ccc2[C@@H]3C(C)(C)C(=O)Nc2nncs2)cc1` [Example 29] the value was 18.9 nM.
For the molecule `Cc1ccc2c(n1)Oc1nc(-c3ccc(S(=O)(=O)N(C)C)cc3)ccc1[C@H]2C(C)(C)C(=O)Nc1nncs1` [Example 25], the Ki amounted to 172 nM.
For `Cc1ccc2c(n1)Oc1nc(-c3ccc(C(=O)N4CCOCC4)cc3)ccc1[C@H]2C(C)(C)C(=O)Nc1nnn(C)n1` [Example 92, 2-methyl-2-((5S)-2-methyl-8-(4-(4-morpholinylcarbonyl)phenyl)-5H-pyrido[3′,2′:5,6]pyrano[2,3-b]pyridin-5-yl)-N-(2-methyl-2H-tetrazol-5-yl)propanamide] the value was 153 nM; for `Cc1ccc2c(n1)Oc1nc(-c3ccc(OC(F)(F)F)cc3)ccc1[C@H]2C(C)(C)C(=O)Nc1nncs1` [Example 24], 2.66 nM; for `Cc1ccc2c(n1)Oc1nc(Cl)ccc1C2C(C)(C)C(=O)Nc1nncs1` (centres unmarked) [Example 19], 269 nM.
For `Cc1ccc2c(n1)Oc1nc(-c3ccc(OC(C)C)nc3)ccc1[C@H]2C(C)(C)C(=O)Nc1nncs1` [Example 74] the value was 27.6 nM.
Regarding `Cc1ccc2c(n1)Oc1nc(-c3ccc(CN4CCCC4)cc3)ccc1[C@H]2C(C)(C)C(=O)Nc1nncs1` [Example 80], the Ki turned out to be 1150 nM.
For `Cc1ccc2c(n1)Oc1nc(-c3ccc(Oc4ccccc4)cc3)ccc1[C@H]2C(C)(C)C(=O)Nc1nncs1` [Example 23] the value was 4.59 nM.
`CC(C)(C(=O)Nc1nnc(C(=O)NC2CC2)s1)C1c2cccnc2Oc2nc(-c3ccc(C(=O)N4CCOCC4)cc3)ccc21` (centres unmarked) [Example 6]: the Ki came to 59 nM.
For `Cc1ccc2c(n1)Oc1nc(-c3ccc(C(=O)N4CCCC4)c(F)c3)ccc1[C@H]2C(C)(C)C(=O)Nc1nncs1` [Example 28] the value was 14.2 nM.
In the case of `Cc1ccc2c(n1)Oc1nc(-c3ccc(C(=O)N4CCC[C@@H]4C(N)=O)cc3)ccc1[C@H]2C(C)(C)C(=O)Nc1nncs1` [Example 90], the inhibition constant Ki stood at 103 nM.
